The results in this text go back to patent US20150297579A1, “TREATMENT OF CANCER WITH POMALIDOMIDE IN A RENALLY IMPAIRED SUBJECT” (priority 2012, published 2015).

This data set deals with patients with relapsed/refractory multiple myeloma (RRMM). The experiment in a line: POM+LoDEX vs. HiDEX in RRMM: analysis of patients with moderate renal impairment. The format is in vivo, human.

SMILES strings stand for the structures.

Experimental: Randomization was 2:1 to POM 4 mg (Day 1 to Day 21)+DEX 40 mg (20 mg for patients aged >75 y) qw; or DEX 40 mg (20 mg for patients aged >75 y) (Day 1-Day 4, Day 9-Day 12, and Day 17-Day 20) in a 28-D cycle. Treatment continued until PD or unacceptable adverse event (AE). The primary endpoint was progression-free survival (PFS). Secondary endpoints included overall survival (OS) and AEs. This analysis examined patients with or without moderate RI (CrCl<60 vs.≧60 mL/min).

For the compound `C[C@@H]1C[C@H]2[C@@H]3CCC4=CC(=O)C=C[C@]4(C)[C@@]3(F)[C@@H](O)C[C@]2(C)[C@@]1(O)C(=O)CO` [HiDEX, (8S,9R,10S,11S,13S,14S,16R,17R)-9-fluoro-11,17-dihydroxy-17-(2-hydroxyacetyl)-10,13,16-trimethyl-6,7,8,9,10,11,12,13,14,15,16,17-dodecahydro-3H-cyclopenta[a]phenanthren-3-one], where the note is “CrCl <60 mL/min (moderate RI)”, the “Median OS (mo)” value came to 4.6 mo and the “Median PFS (mo)” value is on record as 1.6 mo. For the same compound, where the note is “CrCl ≧60 mL/min”, the “Median OS (mo)” value amounted to 9.2 mo and the “Median PFS (mo)” value is reported as 1.8 mo. Under “moderate RI”, the “Discontinuation due to AE” value is recorded as 5%, the “Gr 3/4 AE: anemia” value came to 34%, the “Gr 3/4 AE: infection” value is reported as 24% and the “Gr 3/4 AE: neutropenia” value was found to be 15%. For the same compound, the “Discontinuation due to AE” value (no moderate RI) is reported as 7%. Further, for the setting “normal renal function”, the “Gr 3/4 AE: anemia” value amounted to 26%, the “Gr 3/4 AE: infection” value worked out at 23% and the “Gr 3/4 AE: neutropenia” value is listed as 15%.
